Test results reported in PubChem BioAssay (NCI).
“And” between values parts separate entries of the source, which are not always exact repeats. Identical values can stand only once.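 Interpolation was linear, between the two tested concentrations surrounding the appropriate level; five concentrations were tested over 48 hours in 96-well plates. Here, GI50 denotes the concentration required for 50% inhibition of growth. TGI denotes the concentration required for complete inhibition of growth.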

Tests used:
Assay in all cases: growth of human tumour cells (NCI), 48 h
ACHN renal = test system: ACHN renal
HCT-116 colon = test system: HCT-116 colon
IGROV1 ovarian = test system: IGROV1 ovarian
MOLT-4 leukemia = test system: MOLT-4 leukemia
NCI-H226 lung = test system: NCI-H226 lung
SF-295 CNS = test system: SF-295 CNS
SK-MEL-2 melanoma = test system: SK-MEL-2 melanoma
SK-MEL-28 melanoma = test system: SK-MEL-28 melanoma
SNB-19 CNS = test system: SNB-19 CNS
U251 CNS = test system: U251 CNS

SMILES	GI50 (ACHN renal)	TGI (ACHN renal)	GI50 (HCT-116 colon)	TGI (HCT-116 colon)	GI50 (IGROV1 ovarian)	TGI (IGROV1 ovarian)	GI50 (MOLT-4 leukemia)	TGI (MOLT-4 leukemia)	GI50 (NCI-H226 lung)	TGI (NCI-H226 lung)	GI50 (SF-295 CNS)	TGI (SF-295 CNS)	GI50 (SK-MEL-2 melanoma)	TGI (SK-MEL-2 melanoma)	GI50 (SK-MEL-28 melanoma)	TGI (SK-MEL-28 melanoma)	GI50 (SNB-19 CNS)	TGI (SNB-19 CNS)	GI50 (U251 CNS)	TGI (U251 CNS)
C[CH2][Sn]1([CH2]C)[O]C(=O)[O][Sn]([CH2]C)([CH2]C)[O]1	> 50.4 µM	> 64.6 µM	> 42.9 µM	> 57.7 µM	> 57.6 µM	> 87.8 µM	41.7 µM	> 100 µM	> 43.8 µM	> 58.4 µM	19.4 µM	34.7 µM	15.8 µM	29.6 µM	13 µM	25.8 µM	18.4 µM	33.6 µM	14.8 µM	29.8 µM
Cc1nc2ccc(C(F)(F)F)cc2nc1Nc1ccc(Cl)c(Cl)c1		23.4 µM		22.2 µM				48.2 µM		39.1 µM		11.8 µM		30.2 µM		24.7 µM		27.1 µM		19.4 µM
Cc1cc(/C=C2\SC(=Nc3ccccc3)N(C3CCCC3)C2=O)c(C)n1-c1ccc(Cl)cc1	> 100 µM	> 100 µM	> 100 µM	> 100 µM	> 100 µM	> 100 µM	> 100 µM	> 100 µM	> 100 µM	> 100 µM	> 100 µM	> 100 µM	> 100 µM	> 100 µM	> 100 µM	> 100 µM	> 100 µM	> 100 µM	> 100 µM	> 100 µM
CC(=O)OCC1OC(n2c(-c3ccccc3)cc(-c3ccco3)c(C#N)c2=O)C(OC(C)=O)C(OC(C)=O)C1OC(C)=O (stereo unspecified)		> 100 µM		> 100 µM		> 100 µM		> 100 µM		> 100 µM		> 100 µM		36.9 µM and > 100 µM		67 µM and > 100 µM	90.5 µM and 36.3 µM	> 100 µM	98 µM and 17.8 µM	> 100 µM
COc1cc(OC2OC(C)C(O)C(O)C2O)cc2oc(-c3ccc(O)cc3)c(CC=C(C)C)c(=O)c12 (stereo unspecified)	22 µM	59.8 µM	8.15 µM	20.8 µM	12.9 µM	51.9 µM	3.45 µM	17.7 µM	21.9 µM	69.7 µM	33.9 µM	> 100 µM	35.9 µM	> 100 µM	23.4 µM	59.6 µM	15.3 µM	39.2 µM		
Cc1c(CCCl)c(=O)n2c([nH]c3ccccc32)c1C#N		2.81 µM		1.93 µM		3.4 µM		1.44 µM		4.84 µM		3.48 µM		4.46 µM		3.72 µM				3.45 µM
Oc1ccc(N=Nc2ccc(Cl)cc2)cc1		27.7 µM		29.4 µM		29.3 µM		51.7 µM		35.6 µM		34.6 µM		28.4 µM		54.1 µM		34.3 µM		29.7 µM
CC(=O)NC(CCCCNC(=O)OCc1ccccc1)C(=O)NCc1ccccc1 (stereo unspecified)		> 100 µM		> 100 µM		> 100 µM		> 100 µM		> 100 µM		> 100 µM		> 100 µM		> 100 µM		> 100 µM		> 100 µM
O=c1cc(-c2ccccc2)[nH]c2cccc(S)c12		> 100 µM		> 100 µM		> 100 µM		> 100 µM		98.7 µM		0.389 µM				> 100 µM		> 100 µM		11.4 µM
COc1cc(/C=C/c2cc(C(F)(F)F)[nH]c(=O)n2)ccc1OCc1ccccc1F	12.7 µM	38.7 µM	7.12 µM	19.6 µM	12.4 µM	42 µM	7.27 µM	38 µM	11.9 µM	43.2 µM	5.07 µM	22 µM	12.1 µM	28.2 µM	9.27 µM	24.7 µM	11.5 µM	30.1 µM	5.23 µM	18.5 µM
O=C(Nc1ccccc1)c1ccc(Cl)c([N+](=O)[O-])c1						54.3 µM		21.8 µM		68.4 µM		> 100 µM		32.4 µM		61.4 µM		97.4 µM		> 100 µM
CCN(CC)CCNc1c(OC)cc(C)c2sc3ccccc3c(=O)c12		15.8 µM		16.3 µM		20.7 µM		4.58 µM		12.8 µM		14.4 µM		27.9 µM		5.1 µM		26.6 µM		16 µM
CN(C(=O)c1ccc(Cl)s1)C(=S)N(C)C(=O)c1ccc(Cl)s1		> 10 µM		> 10 µM		> 10 µM		> 10 µM		> 10 µM		> 10 µM		> 10 µM		> 10 µM		> 10 µM		> 10 µM
COc1cc(OC)c(/C=C/c2ccc3ccccc3[n+]2C)c(OC)c1	4.32 µM	> 75.5 µM	0.392 µM	11.7 µM	1.21 µM	13.6 µM	1.35 µM	4.77 µM	1.42 µM	18.5 µM	0.549 µM	4.25 µM	1.13 µM	3.06 µM	0.891 µM	3.62 µM	0.375 µM	14.8 µM	0.323 µM	8.97 µM
CCC(=O)c1cn(C)c(=O)c2ccccc12		> 100 µM				> 100 µM		> 100 µM		> 100 µM		> 100 µM		> 100 µM		> 100 µM		> 100 µM		> 100 µM
Nc1ccc(C(=O)N/C(=C\C=C\c2ccco2)c2nc3[nH]c(=S)[nH]c(=O)c3[nH]2)cc1		> 100 µM				> 100 µM		> 100 µM				> 100 µM		> 100 µM		> 100 µM		> 100 µM		> 100 µM
CC1CC(c2ccccc2)=Nc2ccccc2S1(=O)=O (stereo unspecified)		30.1 µM		3.13 µM		37.8 µM		33.3 µM				39.4 µM		31.3 µM		29.8 µM		28.4 µM		31.9 µM
